According to PMC4442108, “Preclinical Validation of the Heparin-Reactive Peptide p5+14 as a Molecular Imaging Agent for Visceral Amyloidosis” (Molecules, 2015):
Where no end group is shown, it is not given here. [ ]: non-standard residue; d: D form. Tyr(3-I) = N[C@@H](Cc1ccc(O)c(I)c1)C(=O)O

What was measured:
[1] = target: T1, AA amyloid (Mus musculus, UniProt P05367); experiment: Biodistribution, SPECT/CT and micro-autoradiography of 125I-p5+14 in mice with systemic AA amyloidosis; assay type: in vivo, mouse (H2/IL-6 transgenic)
T1 construct: organs known to develop AA amyloid in this mouse model; from tissue; host or cells: live H2/IL-6 transgenic Balb/c mice; liver, spleen, heart, kidney, pancreas
T1 sequence (P05367 20-95 limits assumed): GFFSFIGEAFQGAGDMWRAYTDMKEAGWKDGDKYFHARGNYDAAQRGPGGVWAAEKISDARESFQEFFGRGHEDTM
Protocol: Systemic visceral AA amyloidosis was induced in H2-Ld-huIL-6 Tg Balb/c transgenic mice that constitutively express the human interleukin-6 transgene by iv injection of 10 µg of purified, splenic AA amyloid (amyloid enhancing factor; AEF) in 100 µL of sterile phosphate-buffered saline (PBS). Peptide was evaluated in mice at 4–6 wk post AEF injection when amyloid load was significant.
(§1) For serial SPECT/CT imaging in cohorts (n = 3) of AA and healthy wild type (WT) mice, peptide p5+14 (100 µg) was radioiodinated with ~4 mCi of ^125I (Perkin Elmer, Waltham, MA, USA), using 20 µg chloramine T as the oxidizing agent. After quenching the reaction with 20 µg sodium metabisulfite, the radiolabeled peptide was diluted into 0.1% sterile gelatin in PBS and free radioiodide removed by size exclusion chromatography on a 5 mL PD10 (GE Healthcare) solid phase equilibrated with 0.1% gelatin/PBS. Fractions 0f 200 µL were collected and those containing the maximal radioactivity (indicative of ^125I-p5+14) were pooled, and the product’s radiochemical purity was established by SDS polyacrylamide gel electrophoresis (PAGE) analyzed by phosphor imaging (Cyclone Storage Phosphor System, Perkin Elmer, Shelton, CT, USA).
Imaging was performed as described. Briefly, WT or AA amyloid mice (n = 3) were injected with ~3 µg of ^125I-p5+14, 125 µCi (specific activity ~40 µCi/µg) in the lateral tail vein. After the appropriate uptake time (1, 4, 24, and 48 h), mice were euthanized by isoflurane inhalation overdose. […]
(§2) Samples of liver, spleen, pancreas, kidneys, small and large intestines, stomach and heart were harvested post mortem from every mouse undergoing imaging with ^125I-p5+14 [45]. A sample of each was placed into a tared, plastic vial, weighed and the ^125I radioactivity measured using an automated Wizard 3 gamma counter (1480 Wallac Gamma Counter, Perkin Elmer). The biodistribution data were expressed as % injected dose/g tissue (%ID/g). […]

[2] = target: T2, human ATTR amyloid extract (Homo sapiens, UniProt P02766); experiment: Peptide ex vivo amyloid binding assay (pull-down), ATTR extract; conditions: ATTR heart extract; ~5 ng 125I-p5+14, 25 µL of 1 mg/mL extract, PBST, 1 h RT, pellet vs supernatant CPM; N = 2
T2 construct: as well as one cardiac ATTR extract, were analyzed in this assay; from tissue; host or cells: human heart, water flotation extract

[3] = Biodistribution, SPECT/CT and micro-autoradiography of 125I-p5+14 in healthy wild type mice; assay type: in vivo, mouse (WT)
Protocol: as §1
Imaging was performed as described. Briefly, WT or AA amyloid mice (n = 3) were injected with ~3 µg of ^125I-p5+14, 125 µCi (specific activity ~40 µCi/µg) in the lateral tail vein. After the appropriate uptake time (1, 4, 24, and 48 h), mice were euthanized by isoflurane inhalation overdose. SPECT images were acquired using an Inveon trimodality imaging platform (Siemens Preclinical Solution, Knoxville, TN, USA; [64]) running Inveon Acquisition Workplace software (ver. 2.0). Low energy (^125I; 25–45 keV) gamma photons were acquired at each of 60, 16-sec projections with 90 mm of bed travel. A 1 mm-diameter, 5-pinhole (Mouse Whole Body) collimator was used at 30 mm from the center of the field of view. […]
as §2

[4] = system: human AL and ATTR amyloid in tissue sections; experiment: Peptide histochemistry and overlay micro-autoradiography on human tissue sections; assay type: binding; conditions: ~5 ng/mL, 1 h room temperature; FFPE human AL and ATTR sections
Protocol: For autoradiography, 6- μm-thick sections were cut from formalin-fixed, paraffin-embedded blocks, containing tissues from mice that had received ^125I-p5+14. Mice were euthanized at 1 h pi of radiotracer. The sections were placed on Plus microscope slides (ThermoFisher Scientific, Waltham, MA, USA), dipped in NTB-2 emulsion (Eastman Kodak, Rochester, NY, USA), stored in the dark and developed after a 4 day exposure. Each section was counterstained with hematoxylin and eosin. […] Blinded qualitative assessment of amyloid load in Congo red-stained sections of liver and spleen was performed by an experienced amyloid researcher who ranked each tissue on a 0 to 4+ scale. All tissue sections were examined using a Leica DM500 light microscope (Leica, Wetzlar, Germany) fitted with cross-polarizing filters (for Congo red). Digital microscopic images were acquired using a cooled CCD camera (SPOT; Diagnostic Instruments, Sterling Heights, MI, USA).
Peptide p5+14 (with a cysteine residue at the N-terminal) was prepared for tissue staining by either biotinylation, according to the manufacturer’s instructions, using a maleimide-biotin conjugation kit (Pierce, Grand Island, NY, USA), or for overlay-micoautoradiography by radioiodination with ^125I, as described above. […]

[5] = system: synthetic rVλ6Wil fibrils; assay type: binding, human; conditions: HSPG-free synthetic rVλ6Wil fibrils in suspension; PBST; 1 h RT; 125I-p5+14 ~5 ng
Protocol: Twenty-five microliters of 1 mg/mL AL extract, or synthetic rVλ6Wil variable domain fibrils were centrifuged in a 0.5 mL microfuge tube at 21,000× g for 5 min. The supernatant was discarded and pellet resuspended in 200 µL of PBS with 0.05% Tween-20 (PBST). Ten microliters of a 1:100 dilution of ^125I-p5+14 (~100,000 counts per minute (CPM); ~5 ng peptide) stock was added to the suspension. The mixture was rotated at RT for 1 h. Samples were then centrifuged twice at 15,000× g for 10 min. Supernatants and pellets were separated after each step and the radioactivity in each was measured using a Cobra II gamma counter (Perkin Elmer) with a 1 min acquisition. The percentage of ^125I-p5+14 bound to pellet was determined as follows: % Bound = Pellet CPM/(Pellet CPM + Supernatant CPM) × 100

[6] = system: healthy tissue homogenates; experiment: Peptide ex vivo binding assay, non-specific binding; conditions: data not shown

125I-p5+14 retention in the spleen ([1]; mice deemed amyloid-free by Congo red histochemical staining (cohort n = 34)): > 3 %ID/g
whole-body retention half-life ([1]; mice with AA amyloidosis, iv ~3 µg 125I-p5+14, gamma counting up to 48 h pi, n = 3 per time point): > 48 h
% Bound (mean ± SD) [2]: 79.93 ± 1.23%
whole-body retention half-life ([3]; WT mice, iv ~3 µg 125I-p5+14, gamma counting up to 48 h pi, exponential fit, n = 3 per time point): ~ 1.5 h
tissue uptake at 2 h ([3]; mouse, in vivo, iv, 3 ug, healthy mice, 2 h pi, read-out: retention of radioactivity in any organ): < 0.6 %ID/g
% bound [5]: 95.7%
non-specific binding [6]: ~ 10%
Substance: GGG[Tyr(3-I)]SKAQKAQAKQAKQAQKAQKAQAKQAKQAQKAQKAQAKQAKQ [125I-p5+14]
micro-autoradiographic distribution of radiolabeled peptide in tissues ([1]; AA mice, 1 h pi, 6 µm tissue sections compared with Congo red): co-localized with amyloid in diseased tissues
micro-autoradiographic distribution of radiolabeled peptide in tissues ([3]; WT mice, 1 h pi, 6 µm tissue sections): not retained by any cells or macroscopic structures in healthy tissues
overlay micro-autoradiography on human tissue sections [4]: co-localized with both AL and ATTR amyloid
